{
  "source": "ChEMBL document CHEMBL4382202",
  "about": "“1-(2-Hydroxybenzoyl)-thiosemicarbazides are promising antimicrobial agents targeting d-alanine-d-alanine ligase in bacterio” (Eur J Med Chem, 2018)",
  "key": {"[1]": {"target": "DNA gyrase (Escherichia coli) (UniProt P0AES6+P0AES4)", "assay": "Inhibition of Escherichia coli DNA gyrase at 10 uM using supercoiled pBR322 DNA as substrate after 1 hr by ethidium bromide staining-based agarose gel electrophoresis relative to control", "format": "protein-complex assay"}, "[2]": {"target": "Carbonic anhydrase 2 (Homo sapiens) (UniProt P00918)", "assay": "Inhibition of human carbonic anhydrase 2 at 10 uM using 4-nitrophenyl acetate as substrate after 20 mins by spectrophotometric analysis relative to control"}, "[3]": {"target": "T1, D-alanine--D-alanine ligase (Enterococcus faecalis (strain ATCC 700802 / V583)) (UniProt Q47758)", "T1 sequence (whole entry)": "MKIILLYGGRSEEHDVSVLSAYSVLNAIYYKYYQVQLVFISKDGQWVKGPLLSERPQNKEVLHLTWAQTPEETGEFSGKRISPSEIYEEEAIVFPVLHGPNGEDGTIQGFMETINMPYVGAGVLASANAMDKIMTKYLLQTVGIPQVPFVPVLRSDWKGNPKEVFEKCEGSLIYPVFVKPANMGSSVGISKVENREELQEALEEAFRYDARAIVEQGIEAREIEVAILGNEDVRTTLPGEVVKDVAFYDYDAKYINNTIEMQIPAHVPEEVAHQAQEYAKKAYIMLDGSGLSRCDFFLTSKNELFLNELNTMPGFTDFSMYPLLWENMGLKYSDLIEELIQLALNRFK", "assay": "Inhibition of Enterococcus faecalis JH2-2 C-terminal 6His-tagged DdlB expressed in Escherichia coli LMG194 assessed as Vmax/Km of D-Ala at 10 uM by Biomol Green reagent assay (reference value: 11.02 /min)"}, "[4]": {"target": "Topoisomerase IV (Staphylococcus aureus) (UniProt P0C1U9+P0C1S7)", "assay": "Inhibition of Staphylococcus aureus DNA topoisomerase 4 at 10 uM using interlinked kDNA as substrate after 1 hr by ethidium bromide staining-based agarose gel electrophoresis relative to control", "format": "protein-complex assay"}, "[5]": {"target": "Cannabinoid receptor 1 (Homo sapiens) (UniProt P21554)", "sequence (P21554 whole entry)": "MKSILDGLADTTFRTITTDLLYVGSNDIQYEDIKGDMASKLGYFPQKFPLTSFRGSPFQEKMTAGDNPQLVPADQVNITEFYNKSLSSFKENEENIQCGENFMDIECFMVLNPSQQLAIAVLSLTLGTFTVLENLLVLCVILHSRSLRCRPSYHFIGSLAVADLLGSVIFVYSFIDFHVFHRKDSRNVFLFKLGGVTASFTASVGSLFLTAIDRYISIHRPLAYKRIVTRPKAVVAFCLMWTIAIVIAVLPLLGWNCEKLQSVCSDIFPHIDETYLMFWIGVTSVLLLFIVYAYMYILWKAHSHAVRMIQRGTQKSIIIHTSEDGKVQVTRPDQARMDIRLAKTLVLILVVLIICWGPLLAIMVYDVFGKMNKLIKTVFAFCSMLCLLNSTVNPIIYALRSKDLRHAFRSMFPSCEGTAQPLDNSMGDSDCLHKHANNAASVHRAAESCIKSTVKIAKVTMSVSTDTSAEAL", "assay": "Displacement of [3H]CP 55940 from human recombinant CB1 receptor at 10 uM after 120 mins by scintillation counting analysis relative to control"}, "[6]": {"target": "T1, D-alanine--D-alanine ligase (Enterococcus faecalis (strain ATCC 700802 / V583))", "assay": "Inhibition of Enterococcus faecalis JH2-2 C-terminal 6His-tagged DdlB expressed in Escherichia coli LMG194 assessed as Vmax/Km of ATP at 10 uM by Biomol Green reagent assay (reference value: 0.3 /min)"}, "[7]": {"target": "GABA-A receptor; alpha-1/beta-2/gamma-2 (Homo sapiens) (UniProt P14867+P47870+P18507)", "assay": "Displacement of [3H]muscimol from recombinant human GABAalpha1beta2gamma2 at 10 uM after 120 mins by scintillation counting method relative to control", "format": "protein-complex assay"}, "[8]": {"tested_on": "Escherichia coli", "assay": "Inhibition of Escherichia coli DNA topoisomerase 4 at 10 uM using interlinked kDNA as substrate after 1 hr by ethidium bromide staining-based agarose gel electrophoresis relative to control"}},
  "data": [
    {"smiles": "O=C(NNC(=S)Nc1ccc(Cl)c(Cl)c1)c1ccccc1O", "values": [
      {"measurement": "inhibition", "setting": "[1]", "result": "< 30", "unit": "%"},
      {"measurement": "inhibition", "setting": "[2]", "result": "< 30", "unit": "%"},
      {"measurement": "Vmax/Km", "setting": "[3]", "result": 4.69, "unit": "min⁻¹"},
      {"measurement": "inhibition", "setting": "[4]", "result": "< 30", "unit": "%"},
      {"measurement": "inhibition", "setting": "[5]", "result": "< 30", "unit": "%"},
      {"measurement": "Vmax/Km", "setting": "[6]", "result": 0.1, "unit": "min⁻¹"},
      {"measurement": "inhibition", "setting": "[7]", "result": "< 30", "unit": "%"},
      {"measurement": "inhibition", "setting": "[8]", "result": "< 30", "unit": "%"}
    ]}
  ]
}
